The values below come from ChEMBL document CHEMBL1126789, “Conformational effects on retinoid receptor selectivity. 1. Effect of 9-double bond geometry on retinoid X receptor activity” (J Med Chem, 1993).

Assay [1] has as its target T1, Retinoic acid receptor beta (Homo sapiens, UniProt P10826).
T1 sequence (P10826 whole entry): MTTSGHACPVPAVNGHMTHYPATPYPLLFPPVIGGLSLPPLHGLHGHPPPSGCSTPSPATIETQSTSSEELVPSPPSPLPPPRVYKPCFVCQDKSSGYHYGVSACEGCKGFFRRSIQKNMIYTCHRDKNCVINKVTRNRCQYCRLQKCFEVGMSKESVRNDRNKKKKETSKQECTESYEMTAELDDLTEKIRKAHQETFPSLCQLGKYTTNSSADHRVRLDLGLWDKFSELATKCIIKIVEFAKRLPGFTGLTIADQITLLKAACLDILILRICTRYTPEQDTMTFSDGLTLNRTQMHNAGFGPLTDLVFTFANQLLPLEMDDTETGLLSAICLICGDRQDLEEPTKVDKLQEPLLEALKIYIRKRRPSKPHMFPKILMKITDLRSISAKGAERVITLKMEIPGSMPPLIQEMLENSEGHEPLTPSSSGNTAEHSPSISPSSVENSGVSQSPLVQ
The experiment in a line: Effective concentration against Retinoic acid receptor beta.

Assay [2] deals with T2, Retinoic acid receptor gamma (Homo sapiens, UniProt P13631).
T2 sequence (P13631 whole entry): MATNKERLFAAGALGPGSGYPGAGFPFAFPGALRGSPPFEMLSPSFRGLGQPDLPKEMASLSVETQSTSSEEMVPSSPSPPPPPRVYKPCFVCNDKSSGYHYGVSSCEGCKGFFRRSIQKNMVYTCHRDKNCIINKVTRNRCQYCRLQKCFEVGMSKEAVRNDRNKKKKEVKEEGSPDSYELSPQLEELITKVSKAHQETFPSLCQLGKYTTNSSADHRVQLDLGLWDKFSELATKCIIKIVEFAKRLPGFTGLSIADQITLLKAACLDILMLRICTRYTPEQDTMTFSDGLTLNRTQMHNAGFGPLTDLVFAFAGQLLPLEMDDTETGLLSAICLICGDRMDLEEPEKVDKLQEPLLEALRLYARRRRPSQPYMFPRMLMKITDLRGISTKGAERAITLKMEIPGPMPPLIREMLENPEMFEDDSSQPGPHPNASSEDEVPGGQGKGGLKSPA
The experiment in a line: Effective concentration against RAR-gamma receptor.

The target in assay [3] is T3, Retinoic acid receptor alpha (Homo sapiens, UniProt P10276).
T3 sequence (P10276 whole entry): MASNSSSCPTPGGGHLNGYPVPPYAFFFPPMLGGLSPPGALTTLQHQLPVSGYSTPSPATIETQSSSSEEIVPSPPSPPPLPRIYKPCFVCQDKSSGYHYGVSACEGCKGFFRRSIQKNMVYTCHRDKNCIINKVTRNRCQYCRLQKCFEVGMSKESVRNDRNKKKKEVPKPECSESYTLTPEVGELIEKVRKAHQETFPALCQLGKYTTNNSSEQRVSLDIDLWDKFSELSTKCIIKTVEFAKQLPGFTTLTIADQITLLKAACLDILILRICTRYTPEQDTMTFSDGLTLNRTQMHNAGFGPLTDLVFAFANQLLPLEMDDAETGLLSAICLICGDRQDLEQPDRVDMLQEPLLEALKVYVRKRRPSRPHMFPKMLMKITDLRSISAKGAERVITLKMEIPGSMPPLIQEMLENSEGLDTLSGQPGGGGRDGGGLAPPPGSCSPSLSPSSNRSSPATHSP
Briefly: Effective concentration against RAR-alpha receptor.

Assay [4] addresses T4, Retinoic acid receptor RXR-alpha (Homo sapiens, UniProt P19793).
T4 sequence (P19793 whole entry): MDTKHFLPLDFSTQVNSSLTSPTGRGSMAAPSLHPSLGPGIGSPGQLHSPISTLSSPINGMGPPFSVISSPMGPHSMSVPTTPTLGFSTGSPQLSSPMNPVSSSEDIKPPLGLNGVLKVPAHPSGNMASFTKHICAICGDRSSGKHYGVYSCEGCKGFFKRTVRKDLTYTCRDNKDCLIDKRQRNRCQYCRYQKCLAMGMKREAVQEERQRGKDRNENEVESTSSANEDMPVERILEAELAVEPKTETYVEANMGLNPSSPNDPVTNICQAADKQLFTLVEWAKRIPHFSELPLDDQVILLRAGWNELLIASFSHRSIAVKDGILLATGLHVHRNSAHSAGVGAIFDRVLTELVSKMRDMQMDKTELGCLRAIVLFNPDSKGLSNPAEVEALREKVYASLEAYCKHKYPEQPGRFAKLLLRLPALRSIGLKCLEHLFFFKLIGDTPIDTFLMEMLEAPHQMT
The experiment in a line: Effective concentration against RXR-alpha receptor.

In assay [5] the target is T1, Retinoic acid receptor beta. Briefly: Effective concentration against RAR-beta receptor.

pEC50: −log10 of the molar value.

One may read the pEC50 as −log10 of the EC50, conventionally taken in molar units. Read a high pEC50 as a low EC50. For the molecule `C/C(=C/c1ccc(C(=O)O)cc1)c1ccc2c(c1)C(C)(C)CCS2`, the pEC50 is 6.60 in assay [1], 5.96 in assay [2] and 5.64 in assay [3].

For the molecule `C/C(=C\c1ccc(C(=O)O)cc1)c1ccc2c(c1)C(C)(C)CCS2`, the results for the pEC50 in assay [1], in assay [2] and in assay [3] were 7.82, 7.52 and 7.57, respectively.

In the case of `C/C(=C/c1ccc(C(=O)O)cc1)c1ccc2c(c1)C1CCC2C1` (stereo not drawn), the pEC50 in assay [2] is 7.15.

`C/C(=C/c1ccc(C(=O)O)cc1)c1ccc2c(c1)C(C)(C)CCC2(C)C` had a pEC50 in assay [4] of 5.57.

Regarding `CC1(C)CCC(C)(C)c2cc(-c3ccccc3-c3ccc(C(=O)O)cc3)ccc21`, the pEC50 was 5.55 in assay [4], 5.49 in assay [1] and 7.00 in assay [2].

For the molecule `C/C(=C\c1ccc(C(=O)O)cc1)c1ccc2c(c1)C1CCC2C1` (stereo not drawn), the pEC50 in assay [5] was 5.96; in assay [2], 6.26.

`C/C(=C/c1ccc2c(c1)C(C)(C)CCS2)c1ccc(C(=O)O)cc1`: the negative logarithm of the EC50 (pEC50) in assay [4] was 5.55; in assay [1], 5.82; in assay [2] it was 5.82; in assay [3], 5.68.

For `C/C(=C\c1ccc2c(c1)C(C)(C)CCC2(C)C)c1ccc(C(=O)O)cc1`, the pEC50 in assay [1] was 7.60; in assay [2] it was 7.72; in assay [3] it was 7.43.

With `CC1=C(CC/C(C)=C/c2ccc(C(=O)O)cc2)C(C)(C)CCC1`, the negative logarithm of the EC50 (pEC50) in assay [4] is 5.82; in assay [1] it was 7.70; in assay [2] it was 6.68; in assay [3], 6.26.

Take `C/C(=C\c1ccc2c(c1)C(C)(C)CCS2)c1ccc(C(=O)O)cc1`: the pEC50 is 7.40 in assay [1], 7.33 in assay [2] and 7.35 in assay [3].

`CC1=C(CC/C(C)=C\c2ccc(C(=O)O)cc2)C(C)(C)CCC1`: the pEC50 was 5.70 in assay [1] and 5.89 in assay [2].

Take `CC1=C(/C=C/C(C)=C/c2ccc(C(=O)O)cc2)C(C)(C)CCC1`: the pEC50 in assay [1] was 8.30; in assay [2], 7.46; in assay [3], 6.62.

As for `CC1=C(/C=C/C(C)=C\c2ccc(C(=O)O)cc2)C(C)(C)CCC1`, the pEC50 in assay [1] was 5.74; in assay [2], 5.70; in assay [3], 5.30.

`C/C(=C/c1ccc2c(c1)C(C)(C)CCC2(C)C)c1ccc(C(=O)O)cc1`: the negative logarithm of the EC50 (pEC50) in assay [4] is 5.96; in assay [1] it was 5.72; in assay [2], 5.57.
